What all share (test): growth of human tumour cells (NCI), 48 h
Experiment [1] concerns HT29 colon.
Experiment [2] concerns MCF7 breast.
The test system of experiment [3] is HCT-116 colon.
In experiment [4] the test system is SNB-19 CNS.
Experiment [5] concerns A549 NSCLC.
Experiment [6] deals with HOP-92 NSCLC.
Experiment [7] relates to IGROV1 ovarian.
The test system of experiment [8] is 786-0 renal.
For experiment [9], the system named is SNB-75 CNS.
The test system of experiment [10] is SN12C renal.
Experiment [11] relates to HCC-2998 colon.

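Test compounds were applied to cells in 96-well plates for 48 hours at 5 doses. The concentration for full growth arrest is given as TGI.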 Where only a bound is given, the exact number is not on record here.

Turning to `COc1cc2c(cc1OCc1ccccc1)NC(=O)[C@@H]1CCCN1C2=O`, the TGI in experiment [1], in experiment [2], in [3], in experiment [4], in experiment [5] and in [6] was over 100 µM each time. The TGI in experiment [7], in experiment [8], in [9], in [10] and in experiment [11] was over 100 µM throughout.
`Cn1c(=O)cc(NNc2ccc(Cl)c(Cl)c2)[nH]c1=O`: the TGI in [1] is 40.9 µM; in experiment [2] it was 21.4 µM; in experiment [3] it was 20.5 µM; in experiment [4], over 100 µM; in [5] it was 36 µM; in experiment [6] it was 28.5 µM. Besides, the TGI in experiment [7] worked out at 23.5 µM; in experiment [8], 25.9 µM; in [9] it was 48.4 µM; in experiment [10] it was 21.2 µM; in experiment [11] it was 16.6 µM.
Regarding `Cc1nc2c(=O)n(-c3ccccc3)c(=O)n(-c3ccccc3)c2o1`, the TGI in [1], in [2], in experiment [3], in experiment [4], in experiment [5] and in experiment [6] was over 100 µM in each case. Also, the TGI in experiment [7], in experiment [8], in experiment [9], in experiment [10] and in [11] was over 100 µM in each case.
Consider `CSc1ccc(/C=C2\N=C(c3ccccc3)N(c3nc4cc(Cl)c(F)cc4s3)C2=O)cc1`, for which the TGI was over 100 µM in experiment [1]; over 100 µM in [2]; over 100 µM in experiment [3]; 76.6 µM in [4]; over 100 µM in [5]; over 100 µM in experiment [6]. The TGI in experiment [7] was over 100 µM; in experiment [8], over 100 µM; in experiment [9], 66.6 µM; in experiment [10], over 100 µM; in experiment [11] it was over 100 µM.
Take `CC1(C)C=C(/C=C2/N(S(=O)(=O)C(F)(F)F)C(/C=C3/N(S(=O)(=O)C(F)(F)F)C(C)(C#N)CC3(C)C)=CC2(C)C)N=C1/C=C1/CC(C)(C)C(=O)N1` (stereo not drawn): the TGI was over 100 µM in experiment [1]; over 100 µM in experiment [2]; 42.8 µM in experiment [3]; over 100 µM in experiment [4]; over 100 µM in [5]; 95.3 µM in [6]. Further, the TGI in experiment [7] is 62.9 µM; in experiment [8], over 100 µM; in experiment [9], over 100 µM; in experiment [10] it was over 100 µM; in [11], over 100 µM.
Turning to `CSc1nc(=O)c2nc(-c3cccs3)c(-c3cccs3)nc2n1C`, the TGI in experiment [1] was over 100 µM; in experiment [2], over 100 µM; in experiment [3], over 100 µM; in experiment [4], over 100 µM; in experiment [5], over 100 µM; in [6], 83.5 µM. In addition, the TGI in experiment [7] was over 100 µM; in experiment [8] it was over 100 µM; in experiment [9], 49.6 µM; in experiment [10], over 100 µM; in [11], over 100 µM.
Consider `Clc1ccc(/C(=C/c2ccccc2)Cn2ccnc2)cc1`, for which the TGI in experiment [1] is over 100 µM; in [2] it was over 100 µM; in [3], over 100 µM; in experiment [4], over 100 µM; in [5], over 100 µM; in [6], 67.2 µM. Further, the TGI in [7], in experiment [8], in experiment [9], in experiment [10] and in experiment [11] was over 100 µM each time.
As to `CC1=C(C)SC(=C2Sc3c(n(C)c(=O)n(C)c3=O)S2)S1`, the TGI was over 100 µM in experiment [1]; over 100 µM in [2]; 27.5 µM in experiment [3]; over 100 µM in [4]; over 100 µM in experiment [5]; over 100 µM in [6]. Further, the TGI in experiment [7] was over 100 µM; in experiment [8] it was 34.8 µM; in experiment [9] it was 52.3 µM; in experiment [10], over 100 µM; in [11], over 100 µM.
For the compound `O=C1C=CC(=O)c2c(O)c(N3CCC[C@@H]3CO)c(Cl)c(O)c21`, the TGI in experiment [1] worked out at 4.9 µM; in experiment [2], 2.7 µM; in [3], 2.91 µM; in experiment [4], 3.09 µM; in [5], 4.19 µM; in experiment [6], 3.04 µM. The TGI in experiment [7] was 3.27 µM; in experiment [8], 3.17 µM; in experiment [9] it was 3.12 µM; in experiment [10], 3.25 µM; in [11] it was 3.49 µM.
For `C[C@H]1[C@H](C)CC[C@]2(C(=O)OC3OC(CO)C(O)C(O)C3O)CC[C@]3(C)C(=CC[C@@H]4[C@@]5(C)C[C@@H](O)[C@@H]6OC(=O)c7cc(O)c(O)c(O)c7-c7c(cc(O)c(O)c7O)C(=O)OC[C@@]6(CO)[C@@H]5CC[C@]43C)[C@H]12` (stereo partly drawn), the TGI in [1] was over 57.9 µM; in [2], 36.4 µM; in experiment [3], over 100 µM; in experiment [4] it was over 100 µM; in experiment [5], over 100 µM; in experiment [6] it was over 100 µM. In addition, the TGI in [7] was over 100 µM; in experiment [8] it was over 53.7 µM; in [9] it was over 100 µM; in [10], over 100 µM; in experiment [11], over 100 µM.
With `CC(=O)Oc1ccn2nc(C)c(Br)c2c1`, the TGI in experiment [1], in experiment [2], in experiment [3], in experiment [4], in experiment [5] and in experiment [6] was over 100 µM throughout. Also, the TGI is over 100 µM in [7]; over 100 µM in [8]; 97.2 µM in experiment [9]; over 100 µM in experiment [10]; over 100 µM in experiment [11].
Regarding `CCOC(=O)/C=C/CCC(C)(C)COC(C)=O`, the TGI in [1], in experiment [2], in [3], in experiment [4], in experiment [5] and in [6] was over 10 µM each time. Moreover, the TGI in [7], in experiment [8], in experiment [9], in experiment [10] and in [11] was over 10 µM each time.
On to `NC(=O)c1ccc[n+](C2=C([O-])c3ccccc3C(=O)/C2=N\S(=O)(=O)c2ccccc2)c1`, for which the TGI in experiment [1] worked out at 34 µM; in experiment [2] it was 29.6 µM; in experiment [3], 32.4 µM; in experiment [4], 29.9 µM; in experiment [5], 37.7 µM; in experiment [6], 26.5 µM. Further, the TGI in experiment [7] was 24.5 µM; in [8], 32.3 µM; in [9] it was 28.1 µM; in experiment [10], 30.9 µM; in [11], 22.6 µM.
On to `C[As+](C)(c1ccc(Br)c([N+](=O)[O-])c1)c1ccc(Br)c([N+](=O)[O-])c1.O=[N+]([O-])O`, for which the TGI in experiment [1], in [2], in experiment [3], in [4], in experiment [5] and in experiment [6] was over 100 µM each time. The TGI in [7], in [8], in [9], in experiment [10] and in experiment [11] was over 100 µM throughout.
As to `N#CCCN(CCC#N)c1ccc(C(N=Nc2ccccc2)=Nc2ccc(F)cc2)cc1`, the TGI in [1], in experiment [2], in [3], in experiment [4], in [5] and in [6] was over 100 µM in each case. The TGI in [7], in experiment [8], in [9], in experiment [10] and in [11] was over 100 µM throughout.
As for `Cc1cccc2c1CC(Cc1ccccc1C(=O)O)C2=O` (stereo not drawn), the TGI in experiment [1], in [2], in experiment [3], in [4], in experiment [5] and in experiment [6] was over 100 µM in each case. In addition, the TGI in [7], in [8], in [9], in [10] and in experiment [11] was over 100 µM in each case.
With `COc1ccc([C@]23CCC4(OCC(C)(C)CO4)[C@H]4CON(O[C@H](O[C@@H]5CCCCC5C(C)(C)c5ccccc5)C2)[C@@H]43)cc1OC` (stereo partly drawn), the TGI in experiment [1], in experiment [2], in experiment [3], in experiment [4], in [5] and in experiment [6] was over 100 µM throughout. In addition, the TGI in [7], in experiment [8], in experiment [9], in [10] and in experiment [11] was over 100 µM throughout.
For `O=c1c2ccc(Cl)cc2oc2c(CNc3ccc(S(=O)(=O)Nc4ncccn4)cc3)cccc12`, the TGI in [1], in [2], in experiment [3], in experiment [4], in experiment [5] and in experiment [6] was over 100 µM each time. For the same compound, the TGI in experiment [7], in experiment [8], in [9], in experiment [10] and in experiment [11] was over 100 µM each time.
With `CS(=O)(=O)Nc1ccc2ccccc2c1`, the TGI in experiment [1], in experiment [2], in experiment [3], in [4], in experiment [5] and in experiment [6] was over 100 µM in each case. Also, the TGI in [7], in experiment [8], in experiment [9], in experiment [10] and in [11] was over 100 µM throughout.
For `CC(=N/NC(=S)N(C)C)/C(=N\NC(=S)N(C)C)c1ccccc1`, the TGI in [1] was 9.46 µM; in [2], over 25.6 µM; in experiment [3], 9.77 µM; in experiment [4], 6.85 µM; in [5], 8.56 µM; in experiment [6] it was 3.53 µM. In addition, the TGI was 3.36 µM in [7]; 4.04 µM in experiment [8]; 4.62 µM in experiment [9]; 3.24 µM in experiment [10]; 2.99 µM in [11].
Take `NC(=O)NN=C1Cc2ccccc2C1`: the TGI in [1], in experiment [2], in [3], in [4], in experiment [5] and in experiment [6] was over 100 µM throughout. For the same compound, the TGI in experiment [7], in [8], in experiment [9], in experiment [10] and in experiment [11] was over 100 µM each time.
With `CC(C)=CCc1c(O)cc2oc(-c3ccc(O)cc3O)cc(=O)c2c1O`, the TGI in [1] was 49.8 µM; in experiment [2] it was over 65.6 µM; in experiment [3] it was 61.1 µM; in experiment [4], over 100 µM; in experiment [5], over 100 µM; in experiment [6] it was over 88.6 µM. The TGI in experiment [7] was over 100 µM; in [8] it was 74.5 µM; in experiment [9], 69.1 µM; in experiment [10], over 69.1 µM; in [11], 35.1 µM.
Regarding `Nc1c(N2CCOCC2)c(=O)nc2[nH]/c(=C\c3ccccc3O)c(=O)n12`, the TGI in experiment [1], in experiment [2], in experiment [3], in [4], in experiment [5] and in experiment [6] was over 100 µM each time. Moreover, the TGI in experiment [7], in [8], in experiment [9], in experiment [10] and in experiment [11] was over 100 µM each time.

Source of the values: PubChem BioAssay (NCI).
